{
  "source": "patent US8822500B2",
  "about": "“Tyrosine kinase inhibitors” (Chembridge Corporation, priority 2008, dated 2014)",
  "key": {"ALK": {"target": "ALK (Homo sapiens (Human), UniProt Q9UM73)", "sequence (Q9UM73 19-1620)": "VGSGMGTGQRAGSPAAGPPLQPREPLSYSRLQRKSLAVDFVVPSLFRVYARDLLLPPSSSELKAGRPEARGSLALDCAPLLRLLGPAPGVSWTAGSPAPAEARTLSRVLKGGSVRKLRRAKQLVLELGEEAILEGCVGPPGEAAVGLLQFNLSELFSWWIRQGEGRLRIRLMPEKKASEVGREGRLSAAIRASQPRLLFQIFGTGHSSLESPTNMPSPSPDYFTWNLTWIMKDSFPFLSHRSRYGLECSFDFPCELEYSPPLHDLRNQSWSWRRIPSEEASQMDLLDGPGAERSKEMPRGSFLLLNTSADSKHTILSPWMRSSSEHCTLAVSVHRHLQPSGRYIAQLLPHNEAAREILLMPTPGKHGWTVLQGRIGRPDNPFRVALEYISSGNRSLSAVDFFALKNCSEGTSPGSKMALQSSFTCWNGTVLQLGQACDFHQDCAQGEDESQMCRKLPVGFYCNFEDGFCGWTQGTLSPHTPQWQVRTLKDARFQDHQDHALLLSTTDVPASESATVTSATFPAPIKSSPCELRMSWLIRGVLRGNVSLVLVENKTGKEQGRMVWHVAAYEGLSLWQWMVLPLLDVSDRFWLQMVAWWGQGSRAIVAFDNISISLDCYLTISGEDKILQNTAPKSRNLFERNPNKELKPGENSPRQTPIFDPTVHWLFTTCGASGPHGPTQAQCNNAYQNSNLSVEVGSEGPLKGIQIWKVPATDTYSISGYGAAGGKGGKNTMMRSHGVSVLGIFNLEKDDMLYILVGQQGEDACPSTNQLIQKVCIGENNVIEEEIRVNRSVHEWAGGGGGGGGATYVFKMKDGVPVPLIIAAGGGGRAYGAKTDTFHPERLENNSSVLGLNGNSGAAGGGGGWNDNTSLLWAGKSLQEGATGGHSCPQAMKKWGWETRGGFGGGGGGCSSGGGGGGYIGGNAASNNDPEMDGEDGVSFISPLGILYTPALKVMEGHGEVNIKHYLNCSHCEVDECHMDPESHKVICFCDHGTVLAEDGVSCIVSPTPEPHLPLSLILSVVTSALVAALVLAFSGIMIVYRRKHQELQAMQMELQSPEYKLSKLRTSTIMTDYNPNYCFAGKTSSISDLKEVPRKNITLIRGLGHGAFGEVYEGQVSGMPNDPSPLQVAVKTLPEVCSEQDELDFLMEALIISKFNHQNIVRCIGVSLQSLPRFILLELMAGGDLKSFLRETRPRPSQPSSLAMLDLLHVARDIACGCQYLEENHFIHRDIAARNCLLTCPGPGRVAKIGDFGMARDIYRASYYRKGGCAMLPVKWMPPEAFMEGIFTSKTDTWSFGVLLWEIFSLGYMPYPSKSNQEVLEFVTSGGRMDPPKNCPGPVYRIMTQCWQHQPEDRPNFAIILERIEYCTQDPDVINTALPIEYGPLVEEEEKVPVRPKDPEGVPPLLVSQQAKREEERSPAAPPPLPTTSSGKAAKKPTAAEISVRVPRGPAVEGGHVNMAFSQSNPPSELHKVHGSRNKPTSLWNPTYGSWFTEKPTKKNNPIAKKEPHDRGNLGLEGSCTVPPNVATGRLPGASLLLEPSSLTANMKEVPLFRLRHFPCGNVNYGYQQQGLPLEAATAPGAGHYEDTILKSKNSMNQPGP", "test": "In vitro kinase activity assay (LANCE TR-FRET);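 also: kinase reactions with ATP and a poly-GT peptide substrate, phosphorylated product read by time-resolved FRET, 11-point curve from 10^−11 to 10^−5 M, DMSO as negative control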", "assay_type": "biochemical", "conditions": "read-out: GTx-ALK IC50"}, "ALK (WT)": {"target": "ALK (WT) (Homo sapiens (Human), UniProt Q9UM73)", "sequence (Q9UM73 1060-1620)": "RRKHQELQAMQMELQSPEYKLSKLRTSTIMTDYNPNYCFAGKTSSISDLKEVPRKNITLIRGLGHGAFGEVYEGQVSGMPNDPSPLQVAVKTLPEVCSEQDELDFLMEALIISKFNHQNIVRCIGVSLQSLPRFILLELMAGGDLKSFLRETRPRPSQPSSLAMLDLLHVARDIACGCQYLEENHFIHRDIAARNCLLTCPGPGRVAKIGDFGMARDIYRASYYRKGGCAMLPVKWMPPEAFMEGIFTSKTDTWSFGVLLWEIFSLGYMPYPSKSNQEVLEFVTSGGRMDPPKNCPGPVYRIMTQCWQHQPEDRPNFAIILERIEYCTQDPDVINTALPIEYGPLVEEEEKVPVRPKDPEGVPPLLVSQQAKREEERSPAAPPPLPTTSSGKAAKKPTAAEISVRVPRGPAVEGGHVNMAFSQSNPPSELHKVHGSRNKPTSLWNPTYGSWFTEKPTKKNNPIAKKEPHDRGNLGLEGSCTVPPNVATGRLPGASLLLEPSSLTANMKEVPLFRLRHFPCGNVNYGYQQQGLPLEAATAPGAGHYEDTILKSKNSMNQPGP", "test": "Cell free kinase assay (Carna Biosciences kinases)", "assay_type": "biochemical"}, "ALK R1275Q": {"target": "ALK R1275Q (Homo sapiens (Human), UniProt Q9UM73, R1275Q)", "sequence (Q9UM73 1060-1620 R1275Q)": "as the sequence (Q9UM73 1060-1620) above, with R216Q counted along it", "test": "Cell free kinase assay (Carna Biosciences kinases)", "assay_type": "biochemical"}, "EML4-ALK BaF3 cells": {"test_system": "EML4-ALK BaF3 cells", "test": "BaF3 stables cell viability (WST-1)", "conditions": "Mus musculus, BaF3, read-out: BaF3 Stables IC50 nM EML4-ALK"}, "[1]": {"test_system": "EML4-ALK C1156Y BaF3 cells", "test": "BaF3 stables cell viability (WST-1)", "conditions": "Mus musculus, BaF3, read-out: BaF3 Stables IC50 nM C1156Y"}, "[2]": {"test_system": "EML4-ALK R1275Q BaF3 cells", "test": "BaF3 stables cell viability (WST-1)", "conditions": "Mus musculus, BaF3, read-out: BaF3 Stables IC50 nM R1275Q, EML4-ALK construct"}, "NPM-ALK BaF3 cells": {"test_system": "NPM-ALK BaF3 cells", "test": "BaF3 stables cell viability (WST-1)", "conditions": "Mus musculus, BaF3, read-out: BaF3 Stables IC50 nM NPMALK"}, "[3]": {"test_system": "NPM-ALK C1156Y BaF3 cells", "test": "BaF3 stables cell viability (WST-1)", "conditions": "Mus musculus, BaF3, read-out: BaF3 Stables IC50 nM C1156Y"}, "[4]": {"test_system": "NPM-ALK R1275Q BaF3 cells", "test": "BaF3 stables cell viability (WST-1)", "conditions": "Mus musculus, BaF3, read-out: BaF3 Stables IC50 nM R1275Q"}, "FLT3-ITD BaF3 cells": {"test_system": "FLT3-ITD BaF3 cells", "test": "BaF3 stables cell viability (WST-1)", "conditions": "Mus musculus, BaF3, read-out: BaF3 Stables IC50 nM FLT3-ITD"}},
  "note": "“And” between values parts separate entries of the source, which are not always exact repeats. Identical values can stand only once.",
  "data": [
    {"compound": "Cc1ccc(F)cc1C[C@H](C)Nc1cc[nH]c(=O)c1-c1nc2cc3c(cc2[nH]1)CN(CCN(C)C)C3=O", "note": "(stereo in doubt) [Compound 45, 2-(4-(1-(5-Fluoro-2-methylphenyl)propan-2-ylamino)-2-oxo-1,2-dihydropyridin-3-yl)-6-(2-(dimethylamino)ethyl)-6,7-dihydroimidazo[4,5-f]isoindole-5(1H)-one]", "values": [
      {"measurement": "IC50", "setting": "ALK", "result": "7 nM and 14 nM"},
      {"measurement": "IC50", "setting": "ALK (WT)", "result": 3.3, "unit": "nM"},
      {"measurement": "IC50", "setting": "ALK R1275Q; read-out: Cell Free IC50 (nM) R1275O", "result": 16.8, "unit": "nM"},
      {"measurement": "cell free R1275Q resistance", "setting": "ALK R1275Q; vs ALK (WT)", "result": 4, "unit": "fold"},
      {"measurement": "IC50", "setting": "EML4-ALK BaF3 cells", "result": "66 ± 2.7", "unit": "nM"},
      {"measurement": "IC50", "setting": "[1]", "result": "90 ± 3.2", "unit": "nM"},
      {"measurement": "IC50", "setting": "[2]", "result": "~90", "unit": "nM"},
      {"measurement": "IC50", "setting": "NPM-ALK BaF3 cells", "result": "46 ± 2", "unit": "nM"},
      {"measurement": "IC50", "setting": "[3]", "result": "72 ± 1.2", "unit": "nM"},
      {"measurement": "IC50", "setting": "[4]", "result": "81 ± 4.2", "unit": "nM"},
      {"measurement": "IC50", "setting": "FLT3-ITD BaF3 cells", "result": "> 1", "unit": "nM"}
    ]}
  ]
}
